Measurements taken from paper PMC6591251, “Discovery of potent necroptosis inhibitors targeting RIPK1 kinase activity for the treatment of inflammatory disorder and cancer metastasis” (Cell Death & Disease, 2019).

Legend:
Experiment in all cases: RBC kinase panel
Type in all cases: biochemical
Conditions in all cases: ATP 10 μM, Data1, Data2
[1] = biological target: T1, ABL2/ARG (Homo sapiens, UniProt P42684)
T1 construct: purchased Reaction Biology Corporation
How it was run: (§1)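 Duplicate determinations were made for each of 369 human kinases exposed to 1 μM compound, with reactions run at 10 μM ATP.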

[2] = biological target: T2, ACK1 (Homo sapiens, UniProt Q07912)
T2 construct: purchased Reaction Biology Corporation
How it was run: as §1

[3] = biological target: T3, Aurora A (Homo sapiens, UniProt O14965)
T3 construct: purchased Reaction Biology Corporation
How it was run: as §1

[4] = biological target: T4, BRAF (Homo sapiens, UniProt P15056)
T4 construct: purchased Reaction Biology Corporation
How it was run: as §1

[5] = biological target: T5, CAMK1a (Homo sapiens, UniProt Q14012)
T5 construct: purchased Reaction Biology Corporation
How it was run: as §1

[6] = biological target: T6, CDK1/cyclin A (Homo sapiens, UniProt P06493)
T6 construct: purchased Reaction Biology Corporation
How it was run: as §1

[7] = biological target: T7, CDK5/p25 (Homo sapiens, UniProt Q00535)
T7 construct: purchased Reaction Biology Corporation
How it was run: as §1

[8] = biological target: T8, CDK6/cyclin D3 (Homo sapiens, UniProt Q00534)
T8 construct: purchased Reaction Biology Corporation
How it was run: as §1

[9] = biological target: T9, CDK7/cyclin H (Homo sapiens, UniProt P50613)
T9 construct: purchased Reaction Biology Corporation
How it was run: as §1

[10] = biological target: T10, CK1d (Homo sapiens, UniProt P48730)
T10 construct: purchased Reaction Biology Corporation
How it was run: as §1

[11] = biological target: T11, CK2a2 (Homo sapiens, UniProt P19784)
T11 construct: purchased Reaction Biology Corporation
How it was run: as §1

[12] = biological target: T12, DAPK1 (Homo sapiens, UniProt P53355)
T12 construct: purchased Reaction Biology Corporation
How it was run: as §1

[13] = biological target: T13, DYRK2 (Homo sapiens, UniProt Q92630)
T13 construct: purchased Reaction Biology Corporation
How it was run: as §1

[14] = biological target: T14, DYRK3 (Homo sapiens, UniProt O43781)
T14 construct: purchased Reaction Biology Corporation
How it was run: as §1

[15] = biological target: T15, EPHB3 (Homo sapiens, UniProt P54753)
T15 construct: purchased Reaction Biology Corporation
T15 sequence (P54753 34-998): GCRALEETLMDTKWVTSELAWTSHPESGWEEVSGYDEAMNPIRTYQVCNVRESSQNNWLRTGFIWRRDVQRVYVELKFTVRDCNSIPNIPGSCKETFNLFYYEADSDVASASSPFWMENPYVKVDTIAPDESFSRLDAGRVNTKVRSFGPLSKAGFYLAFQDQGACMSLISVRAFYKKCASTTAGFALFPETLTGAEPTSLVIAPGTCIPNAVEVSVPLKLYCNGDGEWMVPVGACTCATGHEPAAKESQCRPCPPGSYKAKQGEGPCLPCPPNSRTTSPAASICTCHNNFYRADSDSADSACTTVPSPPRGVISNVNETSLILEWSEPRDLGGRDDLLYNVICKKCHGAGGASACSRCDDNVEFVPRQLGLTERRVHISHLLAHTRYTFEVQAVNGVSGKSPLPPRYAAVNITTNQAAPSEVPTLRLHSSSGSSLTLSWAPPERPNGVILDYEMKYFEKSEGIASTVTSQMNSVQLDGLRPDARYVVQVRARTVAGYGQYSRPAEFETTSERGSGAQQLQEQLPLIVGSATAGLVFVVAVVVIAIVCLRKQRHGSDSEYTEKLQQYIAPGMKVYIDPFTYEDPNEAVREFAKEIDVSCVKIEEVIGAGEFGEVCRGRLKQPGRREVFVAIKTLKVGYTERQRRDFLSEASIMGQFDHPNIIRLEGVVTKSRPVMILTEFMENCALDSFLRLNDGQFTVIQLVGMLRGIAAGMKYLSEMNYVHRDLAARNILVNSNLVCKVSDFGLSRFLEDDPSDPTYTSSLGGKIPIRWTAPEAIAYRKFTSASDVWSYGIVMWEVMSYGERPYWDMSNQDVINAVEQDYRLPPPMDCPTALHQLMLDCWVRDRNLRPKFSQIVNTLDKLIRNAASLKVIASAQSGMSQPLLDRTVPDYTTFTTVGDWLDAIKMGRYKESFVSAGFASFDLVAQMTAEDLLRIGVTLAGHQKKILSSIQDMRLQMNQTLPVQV
How it was run: as §1

[16] = biological target: T16, GSK3b (Homo sapiens, UniProt P49841)
T16 construct: purchased Reaction Biology Corporation
How it was run: as §1

[17] = biological target: T17, JNK2 (Homo sapiens, UniProt P45984)
T17 construct: purchased Reaction Biology Corporation
How it was run: as §1

[18] = biological target: T18, KDR/VEGFR2 (Homo sapiens, UniProt P35968)
T18 construct: purchased Reaction Biology Corporation
How it was run: as §1

[19] = biological target: T19, KSR2 (Homo sapiens, UniProt Q6VAB6)
T19 construct: purchased Reaction Biology Corporation
How it was run: as §1

[20] = biological target: T20, LCK (Homo sapiens, UniProt P06239)
T20 construct: purchased Reaction Biology Corporation
T20 sequence (P06239 whole entry): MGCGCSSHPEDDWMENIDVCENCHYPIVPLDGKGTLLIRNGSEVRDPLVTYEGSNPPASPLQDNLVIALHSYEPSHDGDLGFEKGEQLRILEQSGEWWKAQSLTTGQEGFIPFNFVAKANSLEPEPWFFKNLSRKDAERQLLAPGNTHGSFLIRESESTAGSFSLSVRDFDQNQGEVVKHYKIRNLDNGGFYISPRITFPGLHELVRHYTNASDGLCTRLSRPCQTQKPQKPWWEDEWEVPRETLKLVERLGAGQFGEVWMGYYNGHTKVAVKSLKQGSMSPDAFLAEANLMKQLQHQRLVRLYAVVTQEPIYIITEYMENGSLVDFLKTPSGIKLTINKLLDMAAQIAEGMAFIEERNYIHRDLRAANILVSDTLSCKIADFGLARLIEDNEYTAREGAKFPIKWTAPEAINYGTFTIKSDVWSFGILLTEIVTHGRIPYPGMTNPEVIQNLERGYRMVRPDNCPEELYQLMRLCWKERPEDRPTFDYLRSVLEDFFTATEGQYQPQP
How it was run: as §1

[21] = biological target: T21, LCK2/ICK (Homo sapiens, UniProt Q9UPZ9)
T21 construct: purchased Reaction Biology Corporation
How it was run: as §1

[22] = biological target: T22, MARK2/PAR-1Ba (Homo sapiens, UniProt Q7KZI7)
T22 construct: purchased Reaction Biology Corporation
T22 sequence (Q7KZI7 whole entry): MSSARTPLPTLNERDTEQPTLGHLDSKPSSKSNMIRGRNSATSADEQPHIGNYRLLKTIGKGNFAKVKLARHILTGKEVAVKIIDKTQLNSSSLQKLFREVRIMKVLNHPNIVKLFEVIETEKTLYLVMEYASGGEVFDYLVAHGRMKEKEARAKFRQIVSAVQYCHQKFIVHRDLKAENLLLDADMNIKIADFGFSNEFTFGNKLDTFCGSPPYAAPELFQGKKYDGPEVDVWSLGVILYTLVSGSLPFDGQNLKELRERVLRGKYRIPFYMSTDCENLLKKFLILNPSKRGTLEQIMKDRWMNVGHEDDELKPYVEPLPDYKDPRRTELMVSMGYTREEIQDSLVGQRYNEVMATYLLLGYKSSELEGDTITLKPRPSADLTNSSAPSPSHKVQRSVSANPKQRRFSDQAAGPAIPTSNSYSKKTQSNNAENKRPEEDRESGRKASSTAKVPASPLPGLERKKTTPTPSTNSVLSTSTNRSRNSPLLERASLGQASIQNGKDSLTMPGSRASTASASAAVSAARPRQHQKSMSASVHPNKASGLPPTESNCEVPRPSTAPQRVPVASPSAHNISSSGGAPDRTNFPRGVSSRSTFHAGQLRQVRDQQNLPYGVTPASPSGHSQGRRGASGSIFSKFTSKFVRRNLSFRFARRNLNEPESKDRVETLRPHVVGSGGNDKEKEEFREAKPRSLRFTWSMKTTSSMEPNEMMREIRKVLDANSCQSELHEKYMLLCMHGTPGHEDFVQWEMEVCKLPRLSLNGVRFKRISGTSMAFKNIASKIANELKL
How it was run: as §1

[23] = biological target: T23, MSK1/RPS6KA5 (Homo sapiens, UniProt O75582)
T23 construct: purchased Reaction Biology Corporation
T23 sequence (O75582 whole entry): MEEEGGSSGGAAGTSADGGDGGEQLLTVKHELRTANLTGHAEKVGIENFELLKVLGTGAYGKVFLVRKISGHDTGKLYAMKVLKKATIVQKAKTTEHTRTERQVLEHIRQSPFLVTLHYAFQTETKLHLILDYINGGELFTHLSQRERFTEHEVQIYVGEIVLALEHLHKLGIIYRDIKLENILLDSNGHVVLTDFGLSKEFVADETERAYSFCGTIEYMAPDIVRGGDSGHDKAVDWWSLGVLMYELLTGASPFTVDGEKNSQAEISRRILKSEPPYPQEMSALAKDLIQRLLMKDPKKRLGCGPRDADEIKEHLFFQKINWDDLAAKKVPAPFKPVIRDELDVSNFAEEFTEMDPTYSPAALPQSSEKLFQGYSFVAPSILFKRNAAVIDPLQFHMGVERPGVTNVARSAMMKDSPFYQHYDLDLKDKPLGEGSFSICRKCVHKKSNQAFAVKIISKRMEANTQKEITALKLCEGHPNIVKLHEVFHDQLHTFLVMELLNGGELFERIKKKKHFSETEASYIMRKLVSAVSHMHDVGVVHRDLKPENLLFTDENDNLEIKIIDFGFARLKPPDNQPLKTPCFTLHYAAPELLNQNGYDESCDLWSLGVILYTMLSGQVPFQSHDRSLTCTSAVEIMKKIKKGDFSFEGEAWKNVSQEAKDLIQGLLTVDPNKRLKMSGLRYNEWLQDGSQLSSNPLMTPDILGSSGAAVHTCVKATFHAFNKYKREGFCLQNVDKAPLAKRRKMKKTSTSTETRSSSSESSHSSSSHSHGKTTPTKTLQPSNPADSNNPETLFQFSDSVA
How it was run: as §1

[24] = biological target: T24, PAK4 (Homo sapiens, UniProt O96013)
T24 construct: purchased Reaction Biology Corporation
How it was run: as §1

[25] = biological target: T25, PKCd (Homo sapiens, UniProt Q05655)
T25 construct: purchased Reaction Biology Corporation
T25 sequence (Q05655 whole entry): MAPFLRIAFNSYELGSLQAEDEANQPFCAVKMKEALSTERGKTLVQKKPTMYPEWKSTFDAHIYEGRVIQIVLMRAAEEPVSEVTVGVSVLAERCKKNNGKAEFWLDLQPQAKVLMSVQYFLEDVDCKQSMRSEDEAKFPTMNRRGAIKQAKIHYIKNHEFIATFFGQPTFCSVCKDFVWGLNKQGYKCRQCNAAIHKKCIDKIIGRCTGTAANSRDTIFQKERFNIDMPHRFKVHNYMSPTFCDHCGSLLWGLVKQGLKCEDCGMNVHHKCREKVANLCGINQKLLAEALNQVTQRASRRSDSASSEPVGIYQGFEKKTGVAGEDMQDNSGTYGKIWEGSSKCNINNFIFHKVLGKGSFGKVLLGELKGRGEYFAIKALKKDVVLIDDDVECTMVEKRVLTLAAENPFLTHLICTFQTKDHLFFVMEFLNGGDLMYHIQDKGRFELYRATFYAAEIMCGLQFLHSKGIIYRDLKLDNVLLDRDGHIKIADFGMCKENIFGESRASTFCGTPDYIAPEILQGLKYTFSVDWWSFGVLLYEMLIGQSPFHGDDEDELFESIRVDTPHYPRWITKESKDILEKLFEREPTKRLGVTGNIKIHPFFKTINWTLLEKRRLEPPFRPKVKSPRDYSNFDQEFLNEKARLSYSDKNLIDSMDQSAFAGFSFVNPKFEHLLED
How it was run: as §1

[26] = biological target: T26, PLK3 (Homo sapiens, UniProt Q9H4B4)
T26 construct: purchased Reaction Biology Corporation
How it was run: as §1

[27] = biological target: T27, RET (Homo sapiens, UniProt P07949)
T27 construct: purchased Reaction Biology Corporation
T27 sequence (P07949 29-1114): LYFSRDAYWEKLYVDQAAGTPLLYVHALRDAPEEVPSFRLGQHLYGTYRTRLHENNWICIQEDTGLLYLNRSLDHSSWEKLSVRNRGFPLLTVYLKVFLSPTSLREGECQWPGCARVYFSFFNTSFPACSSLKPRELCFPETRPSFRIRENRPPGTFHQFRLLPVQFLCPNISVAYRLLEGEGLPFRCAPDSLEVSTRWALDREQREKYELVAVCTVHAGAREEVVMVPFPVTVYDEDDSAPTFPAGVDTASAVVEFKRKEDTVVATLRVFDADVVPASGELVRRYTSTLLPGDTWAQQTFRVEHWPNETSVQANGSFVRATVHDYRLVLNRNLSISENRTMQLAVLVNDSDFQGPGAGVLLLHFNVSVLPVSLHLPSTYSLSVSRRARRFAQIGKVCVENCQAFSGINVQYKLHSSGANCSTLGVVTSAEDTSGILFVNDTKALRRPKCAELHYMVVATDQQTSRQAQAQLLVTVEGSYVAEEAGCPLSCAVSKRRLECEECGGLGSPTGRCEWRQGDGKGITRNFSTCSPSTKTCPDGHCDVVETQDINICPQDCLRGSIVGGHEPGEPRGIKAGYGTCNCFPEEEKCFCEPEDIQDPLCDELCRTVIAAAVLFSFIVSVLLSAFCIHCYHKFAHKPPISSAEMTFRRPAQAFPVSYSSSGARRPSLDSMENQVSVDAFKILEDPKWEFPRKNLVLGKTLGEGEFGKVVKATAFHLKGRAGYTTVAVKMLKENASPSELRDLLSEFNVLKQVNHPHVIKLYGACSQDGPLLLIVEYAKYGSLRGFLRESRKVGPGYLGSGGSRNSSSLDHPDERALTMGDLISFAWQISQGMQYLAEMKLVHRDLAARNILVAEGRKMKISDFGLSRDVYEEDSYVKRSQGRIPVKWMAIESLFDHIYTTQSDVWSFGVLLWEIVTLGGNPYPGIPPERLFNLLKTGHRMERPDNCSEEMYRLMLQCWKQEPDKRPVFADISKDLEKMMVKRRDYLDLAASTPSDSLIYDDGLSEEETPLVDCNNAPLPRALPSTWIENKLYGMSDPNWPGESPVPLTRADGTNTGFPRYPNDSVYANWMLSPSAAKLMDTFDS
How it was run: as §1

[28] = biological target: T28, ROS/ROS1 (Homo sapiens, UniProt P08922)
T28 construct: purchased Reaction Biology Corporation
How it was run: as §1

[29] = biological target: T29, STK25/YSK1 (Homo sapiens, UniProt O00506)
T29 construct: purchased Reaction Biology Corporation
How it was run: as §1

[30] = biological target: T30, ULK1 (Homo sapiens, UniProt O75385)
T30 construct: purchased Reaction Biology Corporation
How it was run: as §1

[31] = biological target: T31, WNK3 (Homo sapiens, UniProt Q9BYP7)
T31 construct: purchased Reaction Biology Corporation
How it was run: as §1

[32] = biological target: T32, c-Kit (Homo sapiens, UniProt P10721)
T32 construct: purchased Reaction Biology Corporation
How it was run: as §1

[33] = biological target: T33, c-MER (Homo sapiens, UniProt Q12866)
T33 construct: purchased Reaction Biology Corporation
How it was run: as §1

For `CC(=O)Nc1nc2ccc(-c3cnc(C)c(NC(=O)OC4CCCCC4)c3)cc2s1` [PK68, cyclohexyl (5-(2-acetamidobenzo[d]thiazol-6-yl)-2-methylpyridin-3-yl)carbamate], the Activity% ([1]; 1 μM) was 91.15%, the activity at 1 µM [1] was 91.9% and the Activity% ([2]; 1 μM) was 84.41%. It also gave an activity at 1 µM [2] of 85.5%, an Activity% ([3]; 1 μM) of 95.24% and an activity at 1 µM [3] of 95.4%. For the same compound, the Activity% ([4]; 1 μM) was 83.61%, the activity at 1 µM [4] was 84.8% and the Activity% ([5]; 1 μM) was 98.23%. The activity at 1 µM [5] was 98.6%, the Activity% ([6]; 1 μM) was 96.92% and the activity at 1 µM [6] was 97.2%. The Activity% ([7]; 1 μM) was 92.68%, the activity at 1 µM [7] was 94.1% and the Activity% ([8]; 1 μM) was 81.98%. For the same compound, the activity at 1 µM [8] was 82.6%, the Activity% ([9]; 1 μM) was 87.73% and the activity at 1 µM [9] was 89.2%. It also gave an Activity% ([10]; 1 μM) of 103.42%, an activity at 1 µM [10] of 105% and an Activity% ([11]; 1 μM) of 100.37%. For the same compound, the activity at 1 µM [11] was 101%, the Activity% ([12]; 1 μM) was 87.16% and the activity at 1 µM [12] was 88.5%. For the same compound, the Activity% ([13]; 1 μM) was 85.35%, the activity at 1 µM [13] was 86.3% and the Activity% ([14]; 1 μM) was 81.73%. The activity at 1 µM [14] was 83%, the Activity% ([15]; 1 μM) was 98.23% and the activity at 1 µM [15] was 98.8%. It also gave an Activity% ([16]; 1 μM) of 97.24%, an activity at 1 µM [16] of 98.1% and an Activity% ([17]; 1 μM) of 101.11%. For the same compound, the activity at 1 µM [17] was 104%, the Activity% ([18]; 1 μM) was 88.68% and the activity at 1 µM [18] was 90.3%. For the same compound, the Activity% ([19]; 1 μM) was 99.64%, the activity at 1 µM [19] was 100% and the Activity% ([20]; 1 μM) was 62.75%. It also gave an activity at 1 µM [20] of 62.9%, an Activity% ([21]; 1 μM) of 100.77% and an activity at 1 µM [21] of 101%. The Activity% ([22]; 1 μM) was 107.76%, the activity at 1 µM [22] was 110% and the Activity% ([23]; 1 μM) was 93.86%. For the same compound, the activity at 1 µM [23] was 94%, the Activity% ([24]; 1 μM) was 101.97% and the activity at 1 µM [24] was 104%. The Activity% ([25]; 1 μM) was 100.58%, the activity at 1 µM [25] was 101% and the Activity% ([26]; 1 μM) was 104.01%. The activity at 1 µM [26] was 105%, the Activity% ([27]; 1 μM) was 66.89% and the activity at 1 µM [27] was 67.7%. The Activity% ([28]; 1 μM) was 88.56%, the activity at 1 µM [28] was 88.9% and the Activity% ([29]; 1 μM) was 104.63%. It also gave an activity at 1 µM [29] of 110%, an Activity% ([30]; 1 μM) of 100.13% and an activity at 1 µM [30] of 105%. It also gave an Activity% ([31]; 1 μM) of 106.32%, an activity at 1 µM [31] of 107% and an Activity% ([32]; 1 μM) of 75.47%. The activity at 1 µM [32] was 77.5%, the Activity% ([33]; 1 μM) was 84.20% and the activity at 1 µM [33] was 86%.
